Assay results published in patent publication US6734186B1, “Compounds for the treatment of female sexual dysfunction” (Pfizer Inc., priority 1999, dated 2004).
One block for each compound: values may come before it.

Assays:
[1] = tested on: anaesthetised rabbit model of sexual arousal; experiment: Enhancement of pelvic nerve stimulated (PNS) increases in vaginal blood flow, anaesthetised rabbit model; assay type: in vivo; details: for effect on pelvic nerve stimulated increases in vaginal blood flow: at clinically relevant doses
Text: (§1) A ventral midline incision was made into the abdominal cavity. The incision was about 5 cm in length just above the pubis. The fat and muscle was bluntly dissected away to reveal the hypogastric nerve which runs down the body cavity. It was essential to keep close to the side curve of the pubis wall in order to avoid damaging the femoral vein and artery which lie above the pubis. The sciatic and pelvic nerves lie deeper and were located after further dissection on the dorsal side of the rabbit. Once the sciatic nerve is identified, the pelvic nerve was easily located. The term pelvic nerve is loosely applied; anatomy books on the subject fail to identify the nerves in sufficient detail. However, stimulation of the nerve causes an increase in vaginal and clitoral blood flow, and innervation of the pelvic region. The pelvic nerve was freed away from surrounding tissue and a Harvard bipolar stimulating electrode was placed around the nerve. The nerve was slightly lifted to give some tension, then the electrode was secured in position. Approximately 1 ml of light paraffin oil was placed around the nerve and electrode. This acts as a protective lubricant to the nerve and prevents blood contamination of the electrode. The electrode was connected to a Grass S88 Stimulator. The pelvic nerve was stimulated using the following parameters: −5V, pulse width 0.5 ms, duration of stimulus 10 seconds and a frequency range of 2 to 16 Hz. Reproducible responses were obtained when the nerve was stimulated every 15-20 minutes.
(§2) A frequency response curve was determined at the start of each experiment in order to determine the optimum frequency to use as a sub-maximal response, normally 4 Hz. The compound(s) to be tested were infused, via the femoral vein, using a Harvard 22 infusion pump allowing a continuous 15 minute stimulation cycle.
(§3) A ventral midline incision was made, at the caudal end of the pubis, to expose the pubic area. Connective tissue was removed to expose the tunica of the clitoris, ensuring that the wall was free from small blood vessels. The external vaginal wall was also exposed by removing any connective tissue. One laser Doppler flow probe was inserted 3 cm into the vagina, so that half the probe shaft was still visible. A second probe was positioned so that it lay just above the external clitoral wall. The position of these probes was then adjusted until a signal was obtained. A second probe was placed just above the surface of a blood vessel on the external vaginal wall. Both probes were clamped in position.
(§4) Vaginal and clitoral blood flow was recorded either as numbers directly from the Flowmeter using Po-ne-mah data acquisition software (Ponemah Physiology Platform, Gould Instrument Systems Inc), or indirectly from Gould chart recorder trace. Calibration was set at the beginning of the experiment (0-125 ml/min/100 g tissue).
(§5) NEP (Neutral Endopeptidase EC3.4.24.11; Sequence No. 1) inhibitors, phosphodiesterase type 5 (PDE5) inhibitors and NPY Y1 antagonists were made up in saline or 5% glucose solution (200 μl 50% glucose in 1.8 ml water for injection). PDEcAMP inhibitors were dissolved in a 40% ethanol solution (200 μl 50% glucose in 1.8 ml water/ethanol for injection).

[2] = tested on: anaesthetised rabbit model of sexual arousal; experiment: Enhancement of VIP-induced increases in vaginal blood flow, anaesthetised rabbit model; assay type: in vivo; details: for effect on VIP-induced increases in vaginal blood flow: at clinically relevant doses
Text: as §3, §4
An initial infusion of Hepsaline (50UI/ml) was infused to act as a negative control.
as §5

isolated rabbit vagina [3] = experiment: Enhancement of VIP-induced relaxation of precontracted isolated rabbit vagina by test agents; assay type: cell-based; details: for Percentage enhancement of VIP(Sequence No. 8)-induced relaxation: PDE inhibitor at selective dose, isolated rabbit vagina, 1 μM phenylephrine; for effect on VIP-induced and nerve-mediated relaxations of isolated tissue: at clinically relevant doses
Protocol: (§6) 3.7 (a). Rabbit vagina in vitro preparation:—Female New Zealand white rabbits (2.0-3.0 kg) were killed by cervical dislocation. The abdominal cavity was opened and the vagina excised. Tissue strips were mounted longitudinally in Wesley Co. 5 ml silanised organ chambers with braided silk sutures (6/0 gauge) at an initial resting tension of 1.5 g in Krebs bicarbonate buffer maintained at 37° C. and gassed with 95%O2/5%CO2. The upper ligature of each tissue strip was attached to a 10 g capacity force-displacement transducer and changes in isometric force were measured and recorded using a DART in vitro data capture system. Tissues were allowed to equilibrate for 1.5 hours and were regularly washed with Krebs.
(§7) Each tissue was contracted using 1 μM bath concentration of phenylephrine. […] Tissues then received either a test agent (eg NEP or PDE inhibitor) or DMSO vehicle (time matched control).
(§8) For the purpose of curve fitting the minimum relaxation response was constrained to 0% and the maximum relaxation response was allowed to free fit.

[4] = tested on: anaesthetised rabbit model of sexual arousal; experiment: Enhancement of pelvic nerve stimulated increases in clitoral blood flow, anaesthetised rabbit model; assay type: in vivo
Text: as §1
as §2, with “cycle. […]” for “cycle.”
Vaginal and clitoral blood flow was recorded either as numbers directly from the Flowmeter using Po-ne-mah data acquisition software (Ponemah Physiology Platform, Gould Instrument Systems Inc), or indirectly from Gould chart recorder trace. […]

isolated rabbit vagina [5] = experiment: Electrical field stimulated (EFS) relaxation of isolated rabbit vagina; assay type: cell-based
Protocol: Rabbit vaginal strips were prepared as described in Section 3.7 (a). The tissue strips were mounted between two platinum electrodes placed at the top and bottom of the organ chamber approximately 4 cm apart. Each tissue was contracted using 1 μM bath concentration of phenylephrine. When the contractile response reached a stable plateau (15 minutes), the tissues underwent a pre-treatment electrical field stimulated (EFS) induced relaxation curve. This was performed between 40-60 volts using sequential frequencies of 2, 4, 8 and 16 Hz delivered as 10 second trains of 0.5 milli second pulse width. The tissues were allowed to return to base line pre-contractile tension between each frequency (5 minutes) and the size of the relaxation response recorded.
After completion of the pre-treatment EFS response curve, all tissues were washed for 15 minutes, allowing the tissues to return to the baseline tension. Tissues then received either a test agent (eg NEP or PDE inhibitor, nitric oxide synthase [NOS] inhibitor) or DMSO vehicle (time matched control). Tissues were re-contracted with phenylephrine (1 μM) 15 minutes after the addition of compound or vehicle and an EFS-induced relaxation response curve determined as described above. […]

[6] = tested on: anaesthetised rabbit model of sexual arousal; experiment: Increase in clitoral blood flow after iv infusion of vasoactive agents, anaesthetised rabbit model; assay type: in vivo; details: forskolin 40 nmol/kg iv
Text: as §3, §4

isolated rabbit vagina [7] = experiment: Relaxation of precontracted (1 μM phenylephrine) isolated rabbit vaginal strips; assay type: cell-based; details: Oryctolagus cuniculus, precontracted with 1 μM phenylephrine
Protocol: as §6, §7, §8

SMILES: C=CCC(CC1(C(=O)NC2CCCC(C(=O)OCC)C2)CCCC1)C(=O)O (centres unmarked) [FV, cyclohexanecarboxylic acid, 3-[[[1-(2-carboxy-4-pentenyl)cyclopentyl]carbonyl]amino]-,1-ethyl ester]
effect on pelvic nerve stimulated increases in vaginal blood flow [1]: enhance
effect on VIP-induced increases in vaginal blood flow [2]: enhance
effect on VIP-induced and nerve-mediated relaxations of isolated tissue (isolated rabbit vagina [3]): enhance

SMILES: C=CCC(CC1(C(=O)NC2CCCC(C(=O)O)C2)CCCC1)C(=O)O (centres unmarked) [FVI, cyclohexanecarboxylic acid, 3-[[[1-(2-carboxy-4-pentenyl)cyclopentyl]carbonyl]amino]-]
enhancement of peak increase in PNS vaginal blood flow ([1]; 0.1 mg/kg iv, submaximal stimulation 4 Hz): 35.0±7.6%
enhancement of peak increase in PNS vaginal blood flow ([1]; 0.3 mg/kg iv, submaximal stimulation 4 Hz, listed as NEP inhibitor): 40%
effect on pelvic nerve stimulated increases in vaginal blood flow [1]: enhance
maximal enhancement of peak increase in PNS vaginal blood flow (up to) ([1]; compared to time matched control increases): up to 53%
effect on basal (unstimulated) vaginal blood flow ([1]; no pelvic nerve stimulation): no effect
increase in duration of VIP-induced elevation of vaginal blood flow ([2]; VIP dose producing maximal flow increases): circa 80%
duration of VIP-induced elevation in presence of inhibitor ([2]; VIP dose producing maximal flow increases, 11 minutes without inhibitor): 20 min
effect on VIP-induced increases in vaginal blood flow [2]: enhance
effect on VIP-induced enhanced vaginal blood flow ([2]; maximal VIP 60 μg/kg): only potentiate the duration
effect on VIP-induced enhanced vaginal blood flow ([2]; submaximal VIP 6.0 μg/kg): both potentiates the amplitude and prolongs the duration
potentiation of peak VIP-induced increase in vaginal blood flow ([2]; submaximal VIP 6.0 μg/kg): 95±6%
prolongation of duration of VIP-induced increase in vaginal blood flow ([2]; submaximal VIP 6.0 μg/kg): circa 140%
duration of VIP-induced increase in presence of inhibitor ([2]; submaximal VIP 6.0 μg/kg, 7 minutes without inhibitor): > 17 min
enhancement of peak increase in PNS clitoral blood flow ([4]; 1.0 mg/kg iv, 4 Hz): 131%
maximal enhancement of peak increase in PNS clitoral blood flow (up to) ([4]; compared to vehicle control increases): up to 131%
effect on basal (unstimulated) clitoral blood flow ([4]; no pelvic nerve stimulation): no effect
effect on VIP-induced and nerve-mediated relaxations of isolated tissue (isolated rabbit vagina [3]): enhance
effect on non-nitric oxide NANC relaxation induced by EFS (isolated rabbit vagina [5]; 1 μM): enhances

SMILES: NC(=NCCC[C@H](N)C(=O)O)N[N+](=O)[O-] [L-NOARG]
inhibition of EFS-induced relaxations (isolated rabbit vagina [5]; 300 μM): 50%

Second part, led by results:

potentiation of VIP EC50 values (isolated rabbit vagina [3]; inhibitor at 8 nM): 130%
SMILES: COc1ccc(Cc2nc3c(ncn3C(CCCc3ccccc3)C(C)=O)c(=O)[nH]2)cc1OC (centres unmarked) [FII, 9-(1-acetyl-4-phenylbutyl)-2-[(3,4-dimethoxyphenyl)methyl]-1,9-dihydro-6H-purin-6-one]
enhancement of peak increase in blood flow induced by pelvic nerve stimulation ([1]; 200 μg/kg, 4 Hz): circa 15±3%
enhancement of peak increase in PNS vaginal blood flow ([1]; 500 μg/kg iv, 4 Hz): 86.8±21.9%
effect on pelvic nerve stimulated increases in vaginal blood flow [1]: enhances
enhancement of peak increase in blood flow induced by VIP-stimulation ([2]; 200 μg/kg): circa 15±3%
enhancement of duration of VIP-induced increases in peak vaginal blood flow ([2]; VIP 60 μg/kg, measured at 50% amplitude): over 100%
effect on VIP-induced increases in vaginal blood flow [2]: enhances
effect on VIP-induced enhanced vaginal blood flow ([2]; inhibitor 25 μg/kg iv bolus, VIP 60 μg/kg iv bolus): potentiates the duration
Percentage enhancement of VIP(Sequence No. 8)-induced relaxation (isolated rabbit vagina [3]): 130%

potentiation of VIP EC50 values (isolated rabbit vagina [3]; inhibitor at 3.4 μM): 220%
SMILES: Cc1nc(O)c(C#N)cc1-c1ccncc1 [FIII, Milrinone]
Percentage enhancement of VIP(Sequence No. 8)-induced relaxation (isolated rabbit vagina [3]): 220%

potentiation of VIP EC50 values (isolated rabbit vagina [3]; inhibitor at 686 nM): 160%
SMILES: COc1ccc(C2CNC(=O)C2)cc1OC1CCCC1 (centres unmarked) [FIV, Rolipram]
Percentage enhancement of VIP(Sequence No. 8)-induced relaxation (isolated rabbit vagina [3]): 160%

IC50 (isolated rabbit vagina [7]; FIG. 4c): ~300 nM
EC50 (isolated rabbit vagina [7]; read-out: EC50 for relaxation in isolated vaginal tissue): 320 ± 20 nM
SMILES: C=C[C@@]1(C)CC(=O)[C@]2(O)[C@@]3(C)[C@@H](O)CCC(C)(C)[C@@H]3[C@H](O)[C@H](OC(C)=O)[C@@]2(C)O1 [forskolin]
increase in clitoral blood flow [6]: 156%
